In this assay the target is T1, catalytic domain of human Bub1 (amino acids 704-1085) (Homo sapiens, UniProt O43683).
T1 construct: catalytic domain of human Bub1 (amino acids 704-1085); His6 (N); made in house; host or cells: Hi5 insect cells
As to the kind of experiment: Bub1 kinase assay (TR-FRET). The format is biochemical. The conditions noted are these: TR-FRET; ATP 10 μM, peptide substrate 1 μM; 60 min at 22° C.; average or median if tested more than once; read-out: Inhibition of Bub1 kinase IC50. In a few lines:
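Eleven concentrations (0.1 nM–20 μM, duplicate) fitted by 4-parameter logistic for IC50. Read-out: EDTA-stopped TR-FRET (665/620 nm) detecting anti-phosphoserine binding to biotin-peptide (1 μM). Reaction used 10 μM ATP, 60 min at 22 °C, after 15 min compound preincubation with His-tagged human Bub1 704-1085.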

T1 sequence (O43683 704-1085): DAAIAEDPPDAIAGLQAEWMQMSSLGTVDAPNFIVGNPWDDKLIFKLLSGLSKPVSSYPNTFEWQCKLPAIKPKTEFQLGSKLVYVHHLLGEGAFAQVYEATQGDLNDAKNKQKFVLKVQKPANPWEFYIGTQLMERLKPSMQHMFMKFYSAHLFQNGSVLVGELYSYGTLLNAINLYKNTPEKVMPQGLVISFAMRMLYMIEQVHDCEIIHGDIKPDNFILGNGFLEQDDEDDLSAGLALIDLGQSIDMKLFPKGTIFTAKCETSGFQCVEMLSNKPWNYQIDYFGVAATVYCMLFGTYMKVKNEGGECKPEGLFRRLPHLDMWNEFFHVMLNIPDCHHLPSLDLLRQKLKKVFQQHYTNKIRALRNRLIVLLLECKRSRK

For `CNS(=O)(=O)N1CC(=O)c2c([nH]c(-c3ccnc(NC(C)=O)c3)c2Nc2ccc(F)cc2)C1` [Example 315, N-(4-(3-[(4-Fluorophenyl)amino]-6-(methylsulfamoyl)-4-oxo-4,5,6,7-tetrahydro-1H-pyrrolo[2,3-c]pyridin-2-yl)pyridin-2-yl)acetamide], the IC50 (as a rule, the concentration that inhibits the measured activity by half) was found to be 4 nM.
The result for `CNC(=O)N1CC(=O)c2c([nH]c(-c3ccncc3OCCOC)c2Nc2ccccc2)C1` [Example 249] reads 5 nM; that for `CC(C)(O)C(=O)Nc1cc(-c2[nH]c3c(c2Nc2ccccc2)C(=O)COC3)ccn1` [Example 152, N-[4-(3-Anilino-4-oxo-1,4,5,7-tetrahydropyrano[3,4-b]pyrrol-2-yl)pyridin-2-yl]-2-hydroxy-2-methylpropanamide], 437 nM; that for `O=C1CN(S(=O)(=O)C2CC2)Cc2[nH]c(-c3ccncc3)c(Nc3ccccc3)c21` [Example 66, 6-(Cyclopropylsulfonyl)-3-(phenylamino)-2-(pyridin-4-yl)-1,5,6,7-tetrahydro-4H-pyrrolo[2,3-c]pyridin-4-one], 9 nM.
`CC(=O)N1CC(=O)c2c([nH]c(-c3ccncc3)c2Nc2ccccc2)C1` [Example 7, 6-Acetyl-3-(phenylamino)-2-(pyridin-4-yl)-1,5,6,7-tetrahydro-4H-pyrrolo[2,3-c]pyridin-4-one]: the 50% inhibitory concentration (IC50) is 4 nM.
Then `CSCCNC(=O)N1CC(=O)c2c([nH]c(-c3ccncc3)c2Nc2ccccc2)C1` [Example 87, N-[2-(Methylsulfanyl)ethyl]4-oxo-3-(phenylamino)-2-(pyridin-4-yl)-1,4,5,7-tetrahydro-6H-pyrrolo[2,3-c]pyridine-6-carboxamide], with 11 nM; and `CC(C)(C)CC(=O)N1CC(=O)c2c([nH]c(-c3ccncc3)c2Nc2ccccc2)C1` [Example 58, 6-(3,3-Dimethylbutanoyl)-3-(phenylamino)-2-(pyridin-4-yl)-1,5,6,7-tetrahydro-4H-pyrrolo[2,3-c]pyridin-4-one], with 8 nM.
On to `O=C1CN(S(=O)(=O)c2cnc[nH]2)Cc2[nH]c(-c3ccnc(NC(=O)C4CC4(F)F)c3)c(Nc3ccccc3)c21` (racemic) [Example 164, (1RS)—N-{4-[3-Anilino-6-(1H-imidazol-5-ylsulfonyl)-4-oxo-4,5,6,7-tetrahydro-1H-pyrrolo[2,3-c]pyridin-2-yl]pyridin-2-yl}-2,2-difluorocyclopropanecarboxamide], for which the IC50 came out at 6 nM.
On to `CC(C)(C)OC(=O)N1CC(=O)c2c([nH]c(-c3ccnc(NC(=O)[C@@H]4C[C@H]4F)c3)c2Nc2ccccc2)C1` (relative stereo) [Example 129, tert-Butyl 3-anilino-2-[2-({[(rel-1S,2R)-2-fluorocyclopropyl]carbonyl}amino)pyridin-4-yl]-4-oxo-1,4,5,7-tetrahydro-6H-pyrrolo[2,3-c]pyridine-6-carboxylate], for which the IC50 amounted to 7 nM.
The result for `C[S+]([O-])CCNC(=O)N1CC(=O)c2c([nH]c(-c3ccncc3)c2Nc2ccccc2)C1` (racemic) [Example 88, N-{2-[(RS)-Methylsulfinyl]ethyl}4-oxo-3-(phenylamino)-2-(pyridin-4-yl)-1,4,5,7-tetrahydro-6H-pyrrolo[2,3-c]pyridine-6-carboxamide] reads 21 nM.
As to `CN1CCN(C(=O)N2CC(=O)c3c([nH]c(-c4ccnc(NC(=O)[C@@H]5C[C@@H]5F)c4)c3Nc3ccccc3)C2)CC1` [Example 209, (1S,2S)-2-Fluoro-N-(4-6-[(4-methylpiperazin-1-yl)carbonyl]4-oxo-3-(phenylamino)-4,5,6,7-tetrahydro-1H-pyrrolo[2,3-c]pyridin-2-ylpyridin-2-yl)cyclopropanecarboxamide], the IC50 worked out at 7 nM.
As for `CC(=O)Nc1cc(-c2[nH]c3c(c2Nc2ccccc2)C(=O)CN(S(=O)(=O)CCO)C3)ccn1` [Example 188, N-(4-{3-Anilino-6-[(2-hydroxyethyl)sulfonyl]-4-oxo-4,5,6,7-tetrahydro-1H-pyrrolo[2,3-c]pyridin-2-yl}pyridin-2-yl)acetamide], the IC50 turned out to be 4 nM.
The result for `CS(=O)(=O)N1CC(=O)c2c([nH]c(-c3ccnc(NC(=O)C4(F)CC4)c3)c2Nc2ccccc2)C1` [Example 150, N-{4-[3-Anilino-6(methylsulfonyl)-4-4-oxo-4,5,6,7-tetrahydro-1H-pyrrolo[2,3-c]pyridin-2-yl]pyridin-2-yl}-1-fluorocyclopropanecarboxamide] reads 5 nM; that for `CC(=O)N1CC(=O)c2c([nH]c(-c3ccnc(NC(=O)c4ccc(F)cc4C)c3)c2Nc2ccccc2)C1` [Example 265, N-4-[6-Acetyl-4-oxo-3-(phenylamino)-4,5,6,7-tetrahydro-1H-pyrrolo[2,3-c]pyridin-2-yl]pyridin-2-yl-4-fluoro-2-methylbenzamide], 6 nM; that for `COc1cnccc1-c1[nH]c2c(c1Nc1ccccc1)C(=O)CN(C(=O)OC(C)(C)C)C2` [Example 102, tert-Butyl 2-(3-methoxypyridin-4-yl)-4-oxo-3-(phenylamino)-1,4,5,7-tetrahydro-6H-pyrrolo[2,3-c]pyridine-6-carboxylate], 17 nM.
As for `O=C1CN(C(=O)N2CCOCC2)Cc2[nH]c(-c3ccncc3)c(Nc3ccccc3)c21` [Example 94, 6-(Morpholin-4-ylcarbonyl)-3-(phenylamino)-2-(pyridin-4-yl)-1,5,6,7-tetrahydro-4H-pyrrolo[2,3-c]pyridin-4-one], the IC50 was 3 nM.
The result for `O=C(Nc1cc(-c2[nH]c3c(c2Nc2ccccc2)C(=O)COC3)ccn1)c1ccn[nH]1` [Example 145, N-[4-(3-Anilino-4-oxo-1,4,5,7-tetrahydropyrano[3,4-b]pyrrol-2-yl)pyridin-2-yl]-1H-pyrazole-5-carboxamide] reads 16 nM; that for `CS(=O)(=O)N1CC(=O)c2c([nH]c(-c3ccnc(NC(=O)[C@H]4C[C@H]4F)c3)c2Nc2ccccc2)C1` (relative stereo) [Example 148, rel-(1R,2R)—N-{4-[3-Anilino-6-(methylsulfonyl)-4-oxo-4,5,6,7-tetrahydro-1H-pyrrolo[2,3-c]pyridin-2-yl]pyridin-2-yl}-2-fluorocyclopropanecarboxamide], 4 nM.
`NC(CN1CC(=NO)c2c([nH]c(-c3ccncc3)c2Nc2ccccc2)C1)=NO` (mixture of isomers) [Example 218, (1E/Z)—N′-Hydroxy-2-[(4E/Z)-4-(hydroxyimino)-3-(phenylamino)-2-(pyridin-4-yl)-1,4,5,7-tetrahydro-6H-pyrrolo[2,3-c]pyridin-6-yl]ethanimidamide]: the IC50 stood at 79 nM.
The result for `O=C(Nc1cc(-c2[nH]c3c(c2Nc2ccccc2)C(=O)CN(S(=O)(=O)c2cnc[nH]2)C3)ccn1)c1ccc(F)cc1` [Example 160, N-{4-[3-Anilino-6-(1H-imidazol-5-ylsulfonyl)-4-oxo-4,5,6,7-tetrahydro-1H-pyrrolo[2,3-c]pyridin-2-yl]pyridin-2-yl}-4-fluorobenzamide] reads 4 nM; that for `COc1cnccc1-c1[nH]c2c(c1Nc1ccccc1)C(=O)CSC2` [Example 39, 2-(3-Methoxypyridin-4-yl)-3-(phenylamino)-1,7-dihydrothiopyrano[3,4-b]pyrrol-4(5H)-one], 81 nM; that for `O=C1CN(C(=O)C2CC2)Cc2[nH]c(-c3ccncc3)c(Nc3ccccc3)c21` [Example 5, 6-(Cyclopropylcarbonyl)-3-(phenylamino)-2-(pyridin-4-yl)-1,5,6,7-tetrahydro-4H-pyrrolo[2,3-c]pyridin-4-one], 5 nM.
The result for `CC(C)(C)SC(=O)N1CC(=O)c2c([nH]c(-c3ccnc(NC(=O)[C@@H]4C[C@@H]4F)c3)c2Nc2ccccc2)C1` [Example 308, S-tert-Butyl 3-anilino-2-[2-({[(1S,2S)-2-fluorocyclopropyl]carbonyl}amino)pyridin-4-yl]-4-oxo-1,4,5,7-tetrahydro-6H-pyrrolo[2,3-c]pyridine-6-carbothioate] reads 31 nM.
As to `COC(=O)N1CC(=O)c2c([nH]c(-c3ccnc(NC(C)=O)c3)c2Nc2ccc(C)cc2)C1` [Example 321, Methyl 2-[2-(acetylamino)pyridin-4-yl]-3-[(4-methylphenyl)amino]-4-oxo-1,4,5,7-tetrahydro-6H-pyrrolo[2,3-c]pyridine-6-carboxylate], the IC50 came to 113 nM.
With `CC(C)(C)OC(=O)N1CC(=O)c2c([nH]c(-c3ccnc(N)c3)c2Nc2ccccc2)C1` [Example 13, tert-Butyl 2-(2-aminopyridin-4-yl)-4-oxo-3-(phenylamino)-1,4,5,7-tetrahydro-6H-pyrrolo[2,3-c]pyridine-6-carboxylate], the IC50 amounted to 40 nM.
The result for `COc1ccc(C(=O)Nc2cc(-c3c(Nc4ccccc4)c4c(n3C)CN(C(C)=O)CC4=O)ccn2)cc1F` [Example 288, N-4-[6-Acetyl-1-methyl-4-oxo-3-(phenylamino)-4,5,6,7-tetrahydro-1H-pyrrolo[2,3-c]pyridin-2-yl]pyridin-2-yl-3-fluoro-4-methoxybenzamide] reads 404 nM; that for `CC(C)(C)SC(=O)N1CC(=O)c2c([nH]c(-c3ccnc(NC(=O)C4(F)CC4)c3)c2Nc2ccccc2)C1` [Example 307, S-tert-Butyl 3-anilino-2-{2-([(1-fluorocyclopropyl)carbonyl]amino}pyridin-4-yl)-4-oxo-1,4,5,7-tetrahydro-6H-pyrrolo[2,3-c]pyridine-6-carbothioate], 182 nM.
Then `CC(C)OC(=O)N1CC(=O)c2c([nH]c(-c3ccnc(NC(=O)[C@H]4C[C@H]4F)c3)c2Nc2ccccc2)C1` (relative stereo) [Example 157, Isopropyl 3-anilino-2-[2-({[rel-(1R,2R)-2-fluorocyclopropyl]carbonyl}amino)pyridin-4-yl]-4-oxo-1,4,5,7-tetrahydro-6H-pyrrolo[2,3-c]pyridine-6-carboxylate], with 7 nM.
